{"source": "patent US9795632B2", "about": "“Cancer treatments and compositions for use thereof” (priority 2012, dated 2017)", "key": {"[1]": {"tested_on": "micro-capillary blood flow to skin", "assay": "Laser Doppler microcirculation study in three human female subjects, 10,000 ppm NO (Example 5)", "format": "in vivo", "details": "applied to the skin at 1/10% in alcohol", "method": "This example illustrates delivery of nitric oxide formulations similar to those discussed herein in humans. In these studies, laser Doppler studies were performed on three human female subjects. […] The formulations used produce positive, almost immediate results when applied to the skin which, in these studies, was manifested by vasodilatation of the cutaneous vascular system.\nWhile nitric oxide has many physiological effects, the purpose of these studies was to measure physiological effects that would be relatively easy to determine, and which would be noninvasive. […] Nitric oxide is capable of […] the capillary bed, and thus, laser Doppler was selected.\nThe formulation used in these studies contained nitric oxide dispersed in a lipid matrix. […] This provided a stable measuring device as determined by multiple normal evaluations of the capillary blood flow without treatment of nitric oxide.\nA known positive control, methyl nicotinate, was applied to the skin at a concentration of 1/10% in alcohol. […] The laser Doppler device accurately measured these parameters.\nIn these studies, the participants were healthy females aged 30 to 55 years. They were in good health as determined by the medical history and were not taking any prescription medications. All study participants read and signed the informed consent statement prior to any study procedures being performed. […]"}, "[2]": {"tested_on": "capillary circulation of the skin", "assay": "Laser Doppler circulation study in five human subjects (Example 7)", "format": "in vivo", "details": "positive control formulation containing 0.1% methyl nicotinate", "description": "This example illustrates delivery of nitric oxide formulations to five human subjects, using procedures and formulations similar to those discussed in Example 5. Each person served as their own control for the testing. A Moor Instruments Laser Doppler was used to determine circulation. […] The formulations used produce positive, almost immediate results when applied to the skin which, in these studies, was manifested by vasodilatation of the cutaneous vascular system. For each subject, the following creams were applied: a negative control formulation (containing no NO), 0.010 gram of a 10,000 ppm NO formulation, 0.020 gram of a 10,000 ppm NO formulation, and a positive control formulation containing 0.1% methyl nicotinate. The formulations were prepared using procedures similar to those discussed in Example 1."}}, "data": [{"smiles": "COC(=O)c1cccnc1", "note": "[methyl nicotinate]", "values": [{"measurement": "Vasodilator response of positive control", "setting": "[1]", "result": "rapid response typical of the vasodilator"}, {"measurement": "Vasodilatation (laser Doppler)", "setting": "[2]", "result": "vasodilatation was observed"}]}]}
